Experimental data taken from patent US9611277B2 (Janssen Pharmaceutica NV, priority 2013, dated 2017).

How the values were obtained:
[1] = biological target: rat orexin 1 receptor (Rattus norvegicus, UniProt P56718); experiment: Rat orexin 1 receptor radioligand binding; settings: rat orexin 1 receptor; averages of 2-20 runs; read-out: rOX1 Ki
Procedure, shortened: (§1)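 Competition binding with the tritiated thiazolyl-pyrrolidinyl-methanone radioligand in PBS on homogenized rat or human OX1R-expressing cell suspensions, ≤0.1% DMSO; nonspecific binding defined with 10 μM almorexant. Bound radioactivity read by scintillation after filtration; IC50 from one-site competition fit, converted to Ki using pre-determined radioligand Kd.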

[2] = biological target: human orexin 1 receptor (Homo sapiens, UniProt O43613); experiment: Human orexin 1 receptor radioligand binding; settings: human orexin 1 receptor; averages of 2-20 runs; read-out: hOX1 Ki
Procedure, shortened: as §1

[3] = biological target: human orexin 2 receptor (Homo sapiens (Human), UniProt O43614); experiment: Human orexin 2 receptor radioligand binding; settings: human orexin 2 receptor; averages of 2-20 runs; read-out: hOX2 Ki
Chain of human orexin 2 receptor (O43614 whole entry): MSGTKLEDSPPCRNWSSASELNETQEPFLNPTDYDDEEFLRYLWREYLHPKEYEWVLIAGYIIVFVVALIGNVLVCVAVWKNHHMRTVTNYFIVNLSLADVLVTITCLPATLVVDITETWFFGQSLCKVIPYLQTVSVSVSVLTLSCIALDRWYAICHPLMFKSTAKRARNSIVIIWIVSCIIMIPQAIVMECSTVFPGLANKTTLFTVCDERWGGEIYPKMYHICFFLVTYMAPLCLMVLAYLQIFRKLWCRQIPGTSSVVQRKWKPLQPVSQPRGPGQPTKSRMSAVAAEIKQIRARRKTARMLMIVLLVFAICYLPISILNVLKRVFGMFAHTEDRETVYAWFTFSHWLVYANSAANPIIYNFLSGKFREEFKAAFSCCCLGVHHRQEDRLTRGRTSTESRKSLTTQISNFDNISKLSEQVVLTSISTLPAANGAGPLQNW
Procedure, shortened: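 HEK293 cells stably expressing human OX2 receptor, homogenized, incubated with [3H]-EMPA and compounds (DMSO ≤0.1%); nonspecific binding with 10 μM almorexant. Filter-bound radioactivity counted by scintillation; IC50 from one-site competition fit of triplicates, Ki from IC50 and predetermined radioligand Kd, averaged over 2-20 runs.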

| SMILES | Ki [1] [nM] | Ki [2] [nM] | Ki [3] [nM] |
| --- | --- | --- | --- |
| O=C(c1ccccc1-n1nccn1)N1C[C@H]2C[C@@H](Nc3ccc(Br)cn3)[C@@H]1C2 [Example 166, (2-(2H-1,2,3-triazol-2-yl)phenyl)((1S,4S,6R)-6-((5-bromopyridin-2-yl)amino)-2-azabicyclo[2.2.1]heptan-2-yl)methanone] | 2 | 4 | 236 |
| O=C(c1cccc(F)c1-c1ncccn1)N1C[C@H]2C[C@@H](Nc3ccc(Br)cn3)[C@@H]1C2 [Example 167, ((1S,4S,6R)-6-((5-bromopyridin-2-yl)amino)-2-azabicyclo[2.2.1]heptan-2-yl)(3-fluoro-2-(pyrimidin-2-yl)phenyl)methanone] | 2 | 6 | 239 |
| O=C(c1c(F)cccc1-c1ncccn1)N1C[C@H]2C[C@@H](Nc3ccc(Br)cn3)[C@@H]1C2 [Example 168, ((1S,4S,6R)-6-((5-bromopyridin-2-yl)amino)-2-azabicyclo[2.2.1]heptan-2-yl)(2-fluoro-6-(pyrimidin-2-yl)phenyl)methanone] | 2 | 4 | 351 |
| O=C(c1ccccc1-n1nccn1)N1C[C@H]2C[C@@H](Nc3ccc(Cl)cn3)[C@@H]1C2 [Example 169, (2-(2H-1,2,3-triazol-2-yl)phenyl)((1S,4S,6R)-6-((5-chloropyridin-2-yl)amino)-2-azabicyclo[2.2.1]heptan-2-yl)methanone] | 3 | 4 | 285 |
| O=C(c1cccc(F)c1-c1ncccn1)N1C[C@H]2C[C@@H](Nc3ccc(Cl)cn3)[C@@H]1C2 [Example 170, ((1S,4S,6R)-6-((5-chloropyridin-2-yl)amino)-2-azabicyclo[2.2.1]heptan-2-yl)(3-fluoro-2-(pyrimidin-2-yl)phenyl)methanone] | 4 | 12 | 321 |
| O=C(c1ccc(F)cc1-c1ncccn1)N1C[C@H]2C[C@@H](Nc3ccc(Cl)cn3)[C@@H]1C2 [Example 171, ((1S,4S,6R)-6-((5-chloropyridin-2-yl)amino)-2-azabicyclo[2.2.1]heptan-2-yl)(4-fluoro-2-(pyrimidin-2-yl)phenyl)methanone] | 27 | 25 | 1900 |
| O=C(c1ccccc1-n1nccn1)N1C[C@H]2C[C@@H](Nc3ccc(C(F)F)cn3)[C@@H]1C2 [Example 173, (2-(2H-1,2,3-triazol-2-yl)phenyl)((1S,4S,6R)-6-((5-(difluoromethyl)pyridin-2-yl)amino)-2-azabicyclo[2.2.1]heptan-2-yl)methanone] | 55 | 33 | 264 |
| O=C(c1cccc(F)c1-c1ncccn1)N1C[C@H]2C[C@@H](Nc3ccc(C(F)F)cn3)[C@@H]1C2 [Example 174, ((1S,4S,6R)-6-((5-(difluoromethyl)pyridin-2-yl)amino)-2-azabicyclo[2.2.1]heptan-2-yl)(3-fluoro-2-(pyrimidin-2-yl)phenyl)methanone] | 18 | 15 | 230 |
| COc1ccc(N[C@@H]2C[C@H]3C[C@@H]2N(C(=O)c2ccccc2-n2nccn2)C3)nc1 [Example 175, (2-(2H-1,2,3-triazol-2-yl)phenyl)((1S,4S,6R)-6-((5-methoxypyridin-2-yl)amino)-2-azabicyclo[2.2.1]heptan-2-yl)methanone] | 170 | 191 | 844 |
| COc1ccc(N[C@@H]2C[C@H]3C[C@@H]2N(C(=O)c2cccc(F)c2-c2ncccn2)C3)nc1 [Example 176, (3-fluoro-2-(pyrimidin-2-yl)phenyl)((1S,4S,6R)-6-((5-methoxypyridin-2-yl)amino)-2-azabicyclo[2.2.1]heptan-2-yl)methanone] | 56 | 52 | 1300 |
| O=C(c1ccccc1-n1nccn1)N1C[C@H]2C[C@@H](Nc3ncc(C(F)(F)F)cc3F)[C@@H]1C2 [Example 177, (2-(2H-1,2,3-triazol-2-yl)phenyl)((1S,4S,6R)-6-((3-fluoro-5-(trifluoromethyl)pyridin-2-yl)amino)-2-azabicyclo[2.2.1]heptan-2-yl)methanone] | 3 | 3 | 200 |
| Cc1ccc(-n2nccn2)c(C(=O)N2C[C@H]3C[C@@H](Nc4ncc(C(F)(F)F)cc4F)[C@@H]2C3)n1 [Example 178, ((1S,4S,6R)-6-((3-fluoro-5-(trifluoromethyl)pyridin-2-yl)amino)-2-azabicyclo[2.2.1]heptan-2-yl)(6-methyl-3-(2H-1,2,3-triazol-2-yl)pyridin-2-yl)methanone] | 6 | 8 | 112 |
| O=C(c1cccc(F)c1-c1ncccn1)N1C[C@H]2C[C@@H](Nc3ncc(C(F)(F)F)cc3F)[C@@H]1C2 [Example 179, (3-fluoro-2-(pyrimidin-2-yl)phenyl)((1S,4S,6R)-6-((3-fluoro-5-(trifluoromethyl)pyridin-2-yl)amino)-2-azabicyclo[2.2.1]heptan-2-yl)methanone] | 5 | 5 | 217 |

Results, then the compound that gave them:

| Ki [1] [nM] | Ki [2] [nM] | Ki [3] [nM] | SMILES |
| --- | --- | --- | --- |
| 6 | 5 | 380 | O=C(c1ccccc1-c1ncc(F)cn1)N1C[C@H]2C[C@@H](Nc3ncc(C(F)(F)F)cc3F)[C@@H]1C2 [Example 180, ((1S,4S,6R)-6-((3-fluoro-5-(trifluoromethyl)pyridin-2-yl)amino)-2-azabicyclo[2.2.1]heptan-2-yl)(2-(5-fluoropyrimidin-2-yl)phenyl)methanone] |
| 5 | 8 | 163 | Cc1ccc(-n2nccn2)c(C(=O)N2C[C@H]3C[C@@H](Nc4nc5ccccc5o4)[C@@H]2C3)n1 [Example 181, ((1S,4S,6R)-6-(benzo[d]oxazol-2-ylamino)-2-azabicyclo[2.2.1]heptan-2-yl)(6-methyl-3-(2H-1,2,3-triazol-2-yl)pyridin-2-yl)methanone] |
| 3 | 4 | 218 | O=C(c1cccc(F)c1-n1nccn1)N1C[C@H]2C[C@@H](Nc3nc4ccccc4o3)[C@@H]1C2 [Example 182, ((1S,4S,6R)-6-(benzo[d]oxazol-2-ylamino)-2-azabicyclo[2.2.1]heptan-2-yl)(3-fluoro-2-(2H-1,2,3-triazol-2-yl)phenyl)methanone] |
| 5 | 7 | 206 | O=C(c1cccc(F)c1-c1ncccn1)N1C[C@H]2C[C@@H](Nc3nc4ccccc4o3)[C@@H]1C2 [Example 183, ((1S,4S,6R)-6-(benzo[d]oxazol-2-ylamino)-2-azabicyclo[2.2.1]heptan-2-yl)(3-fluoro-2-(pyrimidin-2-yl)phenyl)methanone] |
| 13 | 15 | 337 | Cc1ccc(N[C@@H]2C[C@H]3C[C@@H]2N(C(=O)c2cccc(F)c2-c2ncccn2)C3)cc1 [Example 184, (3-fluoro-2-(pyrimidin-2-yl)phenyl)((1S,4S,6R)-6-(p-tolylamino)-2-azabicyclo[2.2.1]heptan-2-yl)methanone] |
| 27 | 33 | 146 | O=C(c1cccc2cc[nH]c12)N1C[C@H]2C[C@@H](Nc3ccc(C(F)(F)F)cn3)[C@@H]1C2 [Example 185, (1H-indol-7-yl)((1S,4S,6R)-6-((5-(trifluoromethyl)pyridin-2-yl)amino)-2-azabicyclo[2.2.1]heptan-2-yl)methanone] |
| 123 | 151 | 2700 | O=C(c1cccc2cn[nH]c12)N1C[C@H]2C[C@@H](Nc3ccc(C(F)(F)F)cn3)[C@@H]1C2 [Example 186, (1H-indazol-7-yl)((1S,4S,6R)-6-((5-(trifluoromethyl)pyridin-2-yl)amino)-2-azabicyclo[2.2.1]heptan-2-yl)methanone] |
| 28 | 30 | 1600 | Cc1cnc(C(=O)N2C[C@H]3C[C@@H](Nc4cnc(C(F)(F)F)cn4)[C@@H]2C3)c(-n2nccn2)c1 [Example 187, (5-methyl-3-(2H-1,2,3-triazol-2-yl)pyridin-2-yl)((1S,4S,6R)-6-((5-(trifluoromethyl)pyrazin-2-yl)amino)-2-azabicyclo[2.2.1]heptan-2-yl)methanone] |
| 191 | 210 | > 10000 | O=C(c1cccnc1-n1nccn1)N1C[C@H]2C[C@@H](Nc3cnc(C(F)(F)F)cn3)[C@@H]1C2 [Example 188, (2-(2H-1,2,3-triazol-2-yl)pyridin-3-yl)((1S,4S,6R)-6-((5-(trifluoromethyl)pyrazin-2-yl)amino)-2-azabicyclo[2.2.1]heptan-2-yl)methanone] |
| 14 | 11 | 678 | O=C(c1ncccc1-c1ncccn1)N1C[C@H]2C[C@@H](Nc3cnc(C(F)(F)F)cn3)[C@@H]1C2 [Example 189, (3-(pyrimidin-2-yl)pyridin-2-yl)((1S,4S,6R)-6-((5-(trifluoromethyl)pyrazin-2-yl)amino)-2-azabicyclo[2.2.1]heptan-2-yl)methanone] |
| 12 | 12 | > 10000 | Cc1cnc(C(=O)N2C[C@H]3C[C@@H](Nc4cnc(C(F)(F)F)cn4)[C@@H]2C3)c(-c2ncccn2)c1 [Example 190, (5-methyl-3-(pyrimidin-2-yl)pyridin-2-yl)((1S,4S,6R)-6-((5-(trifluoromethyl)pyrazin-2-yl)amino)-2-azabicyclo[2.2.1]heptan-2-yl)methanone] |
